From paper PMC9785397, “Exploiting Conserved Quorum Sensing Signals in Streptococcus mutans and Streptococcus pneumoniae” (Microorganisms, 2022)
Converted amounts (≈) assume the structure as drawn.

Assays:
comD gene = test: qRT-PCR, comD gene expression; assay type: cell-based, Streptococcus mutans; conditions: CSP1 20 μM, planktonic, 8 h, qPCR
Procedure: (§1) S. mutans was cultured in BHI supplemented with peptides or the vehicle. Cultures were centrifuged, and total RNA was isolated and purified from the bacterial pellets using the GRS Total RNA Kit—Bacteria (GK16.0100; GRISP Research Solution, Porto, Portugal), following the manufacturer’s instructions. Purified RNA was subjected to DNase I treatment to remove contaminating DNA. The RNA yield and purity were assessed by measuring the absorbance, and only samples with a ratio of 260/280 nm in the 1.8–2 range were used. cDNA was generated using the cDNA RT kit with an RNAse inhibitor (Applied Biosystems; Monza, Milan). Quantitative PCR (qRT-PCR) was performed using SYBR green mixture (iScript One Step RT-PCR kit; Bio-Rad, Segrate, Milan) to determine the transcript levels of genes using the oligonucleotides listed in Table 3. The gyrA gene served as the housekeeping gene.

[1] = system: S. mutans bacteriocin production against P. aeruginosa; test: Bacteriocin overlay assay, S. mutans spotted on P. aeruginosa; assay type: cell-based, Streptococcus mutans; conditions: CSP1 20 μM, microaerophilic, experimental control
Procedure: (§2) During the formation of complex biofilm such as dental plaque, the ability of S. mutans to compete with other commensal species determines the success of the cariogenesis process. S. mutans uses antibacterial peptides, namely, bacteriocins, to overcome and subvert the composition of dental microbiota. We investigated the production of bacteriocins using the overlay assay. Overnight cultures of S. mitis, S. oralis, S. sanguinis, P. aeruginosa, F. nucleatum, or P. gingivalis were diluted 1:100 in BHI or TS broth and incubated at 37 °C until they reached an OD620 of 0.3. Cultures were added with agar (BD Difco^TM Agar) at the final concentration of 1.5% w/v and transferred in plates. Overnight cultures of S. mutans were diluted 1:100 in BHI and added with peptides (20 μM) or the vehicle with or without CSP1. Culture media were supplemented with agar to reach the final concentration of 0.7% w/v. The solutions were spotted on the surface of agar plates prepared as described above. […]
(§3) Spots (10 for each experimental group) were acquired and analyzed using NIH Image J software (version 1.53t August 2022, https://imagej.nih.gov/ij/index.html; accessed on 7 September 2022). The appearance of a clear area on the plate (bacterial growth inhibition) was evaluated as indicative of bacteriocin activity. The diameters of the area were measured in a blinded fashion.

[2] = system: S. mutans bacteriocin production against S. oralis; test: Bacteriocin overlay assay, S. mutans spotted on S. oralis; assay type: cell-based, Streptococcus mutans; conditions: CSP1 20 μM alone vs vehicle, 16 h, 37 °C, microaerophilic
Procedure: During the formation of complex biofilm such as dental plaque, the ability of S. mutans to compete with other commensal species determines the success of the cariogenesis process. S. mutans uses antibacterial peptides, namely, bacteriocins, to overcome and subvert the composition of dental microbiota. We investigated the production of bacteriocins using the overlay assay. Overnight cultures of S. mitis, S. oralis, S. sanguinis, P. aeruginosa, F. nucleatum, or P. gingivalis were diluted 1:100 in BHI or TS broth and incubated at 37 °C until they reached an OD620 of 0.3. Cultures were added with agar (BD Difco^TM Agar) at the final concentration of 1.5% w/v and transferred in plates. Overnight cultures of S. mutans were diluted 1:100 in BHI and added with peptides (20 μM) or the vehicle with or without CSP1. Culture media were supplemented with agar to reach the final concentration of 0.7% w/v. The solutions were spotted on the surface of agar plates prepared as described above. The plates were kept on the benchtop for 30 min, allowing the agar containing S. mutans to solidify, and then incubated at 37 °C for 16 h under microaerophilic or anaerobic conditions, as required.
as §3

P. gingivalis = test: microbe, parasite or virus in culture; assay type: cell-based, Porphyromonas gingivalis; conditions: peptides 0–50 μM, 16 h, 37 °C, anaerobic, A620 nm, three separate experiments
Description: (§4) Streptococcus mutans Clarke (strain designation NCTC 10449), Pseudomonas aeruginosa (Schroeter) Migula (strain designation PAO1), Fusobacterium nucleatum, subspecies nucleatum (strain VPI 4355), and Porphyromonas gingivalis (strain 2561) were purchased from ATCC (LGC Standards Srl, Milan, Italy). Streptococcus mitis, Streptococcus oralis, and Streptococcus sanguinis were obtained from clinical isolates and characterized by morphological, biochemical, and molecular typing. S. mutans, S. mitis, S. oralis, and S. sanguinis were maintained in Brain Heart Infusion (BHI) broth or agar under microaerophilic conditions. P. aeruginosa was maintained in trypticase soy (TS) agar or broth. F. nucleatum was maintained in TS agar or broth with defibrinated sheep blood under anaerobic conditions. P. gingivalis was maintained in ATCC Medium 2722 supplemented with TS broth or agar under anaerobic conditions. Before the experiments, bacterial cultures were inoculated in fresh media (dilution 1:100) and grown for 16 h at 37 °C.
(§5) The antimicrobial activities of the tested peptides were assessed through the determination of the minimum inhibitory concentration (MIC) standardized by the Clinical and Laboratory Standards Institute. Bacterial inocula were diluted in 10 mL of MHB […]. The concentration of the bacteria was adjusted to 0.5 McFarland standard, and the bacteria were dispensed in 96-well microtiter plates (final bacterial concentration: 1 × 10^4 CFU/well). Peptides were dissolved in sterile water (stock concentration: 2 mM) and added at final concentrations ranging from 0 to 50 µM. Plates were incubated at 37 °C for 16 h. At the end of incubation, bacterial growth was recorded using a microplate reader (Varioskan Lux Reader; Thermo Fisher Scientific, Milan, Italy) by quantifying the adsorption at 620 nm. Cultures were then opportunely diluted and seeded on agar plates. Bacterial cultures inoculated with the highest final concentration of the vehicle (sterile water) or chlorhexidine hydrochloride salt (CHX, concentration range: 0.05 to 500 μg/mL; Merck, Milan, Italy) were included as controls in each test. Experiments were performed in triplicate.

[3] = system: S. mutans bacteriocin production against P. gingivalis; test: Bacteriocin overlay assay, S. mutans spotted on P. gingivalis; assay type: cell-based, Streptococcus mutans; conditions: CSP1 20 μM, 16 h, anaerobic
Procedure: as §2, §3

comC gene = test: qRT-PCR, comC gene expression; assay type: cell-based, Streptococcus mutans; conditions: CSP1 20 μM, 8 h, qPCR
Procedure: as §1

S. sanguinis = test: microbe, parasite or virus in culture; assay type: cell-based, Streptococcus sanguinis; conditions: peptides 0–50 μM, 16 h, 37 °C, microaerophilic, A620 nm, three separate experiments
Description: as §4, §5

vicK gene = test: qRT-PCR, vicK gene expression in biofilm; assay type: cell-based, Streptococcus mutans; conditions: CSP1 20 μM vs vehicle, 16 h, qPCR
Procedure: as §1

P. aeruginosa = test: microbe, parasite or virus in culture; assay type: cell-based, Pseudomonas aeruginosa; conditions: peptides 0–50 μM, 16 h, 37 °C, aerobic, A620 nm, three separate experiments
Description: as §4, §5

Compound: CC[C@H](C)[C@H](NC(=O)[C@H](Cc1ccccc1)NC(=O)[C@H](CC(=O)O)NC(=O)[C@H](CCCNC(=N)N)NC(=O)[C@H](Cc1ccccc1)NC(=O)[C@H](Cc1ccccc1)NC(=O)[C@H](CCCCN)NC(=O)[C@H](CO)NC(=O)[C@H](CC(C)C)NC(=O)[C@H](CCCNC(=N)N)NC(=O)[C@H](CCSC)NC(=O)[C@@H](N)CCC(=O)O)C(=O)N[C@@H](CC(C)C)C(=O)N[C@@H](CCC(N)=O)C(=O)N[C@@H](CCCNC(=N)N)C(=O)N[C@@H](CCCCN)C(=O)N[C@@H](CCCCN)C(=O)O [CSP1]
- Expression of comD in S. mutans (comD gene): increased the expression
- Replication of P. aeruginosa in presence of S. mutans stimulated with peptide [1]: not affected
- Growth inhibition of co-cultured S. oralis by S. mutans stimulated with peptide (diameter of clear area) [2]: significantly inhibited the growth
- Minimum inhibitory concentration (MIC), P. gingivalis (P. gingivalis): >50 µM
- Growth inhibition of P. gingivalis by S. mutans stimulated with peptide [3]: no effects
- Expression of comC in S. mutans (comC gene): no effects
- Minimum inhibitory concentration (MIC), S. sanguinis (S. sanguinis): 21 µM (≈ 47.1 µg/mL)
- Expression of vicK in S. mutans biofilm (vicK gene): significantly increased
- Minimum inhibitory concentration (MIC), P. aeruginosa (P. aeruginosa): >50 µM
